The values that follow come from publication PMC6522510 (Nature Communications, 2019).

Some test systems named below: MOLM-13; CHRF288-11; U937; ML-2; CMS; CMK; MV4-11; M07e.
What all share (design): species or system AML cell lines (8); Primary HTS, single concentration about 10 uM, Cell Titer Glo viability; log10 luminescence, per cent inhibition relative to cycloheximide control
Settings in all cases: 72 h, relative to cycloheximide control, log10 luminescence; inhibitor

For `CC(C)(C)c1ccc(C(O)CCCN2CCC(C(O)(c3ccccc3)c3ccccc3)CC2)cc1` (stereo not drawn) [SJ000287189-5, TERFENADINE], the MOLM-13 %inh in the experiment with MOLM-13 is recorded as -1.727%. In addition, the CHRF288-11 %inh in the experiment on CHRF288-11 is on record as 1.988%. In the experiment with U937, the U937 %inh was determined as 0.7714%. The ML-2 %inh in the experiment on ML-2 amounted to 1.525%. The CMS %inh in the experiment on CMS is given as -3.743%. The CMK %inh in the experiment on CMK is on record as -4.344%. Moreover, the MV4-11 %inh in the experiment with MV4-11 was 1.084%. Also, in the experiment on M07e, the M07e %inh stood at 132.8%.
As for `Nc1c(C(=O)c2cccc(C#CCN3CCOCC3)c2)cnn1-c1ccc(F)cc1` [SJ000580973-1], the MOLM-13 %inh in the experiment on MOLM-13 is reported as 2.598%. The CHRF288-11 %inh with CHRF288-11 is 3.718%. Besides, the U937 %inh in the experiment on U937 amounted to 6.28%. Further, the ML-2 %inh with ML-2 was 0.4746%. The CMS %inh in the experiment on CMS is listed as 0.1973%. The CMK %inh in the experiment on CMK was 37.5%. Besides, the MV4-11 %inh with MV4-11 is 1.084%. In the experiment with M07e, the M07e %inh was found to be 5.913%.
Turning to `N#Cc1c(NC(=O)c2ccccc2F)sc2c1CCCC2` [SJ000121296-2, R15619/66/1], in the experiment on MOLM-13, the MOLM-13 %inh is listed as 0.9257%. The CHRF288-11 %inh in the experiment with CHRF288-11 stood at 1.937%. The U937 %inh in the experiment on U937 came to 21.81%. Moreover, in the experiment with ML-2, the ML-2 %inh was found to be 8%. Moreover, the CMS %inh with CMS is 2.048%. In the experiment on CMK, the CMK %inh worked out at 11.25%. In the experiment with MV4-11, the MV4-11 %inh is given as -1.785%. For the same compound, in the experiment with M07e, the M07e %inh was determined as 15.03%.
For the compound `COc1cccc(Nc2nccc(-c3cnn4ncccc34)n2)c1` [SJ000573028-1, U18020/75/1], the MOLM-13 %inh in the experiment with MOLM-13 is reported as 96.5%. In the experiment with CHRF288-11, the CHRF288-11 %inh is given as 61.5%. For the same compound, the U937 %inh in the experiment on U937 is 74.45%. Also, in the experiment with ML-2, the ML-2 %inh is listed as 57.03%. For the same compound, the CMS %inh with CMS was 93.88%. Besides, the CMK %inh with CMK was determined as 112.7%. Also, in the experiment with MV4-11, the MV4-11 %inh is recorded as 76.07%. Also, in the experiment with M07e, the M07e %inh was found to be 96.77%.
In the case of `CC(C)c1ccc(-c2cc(-c3c[nH]nc3-c3ccccn3)ccn2)cc1` [SJ000573275-1, FVLN/241/7/1], the MOLM-13 %inh with MOLM-13 is on record as 2.021%. The CHRF288-11 %inh in the experiment on CHRF288-11 stood at 9.433%. In addition, in the experiment with U937, the U937 %inh came to 0.007743%. For the same compound, the ML-2 %inh in the experiment on ML-2 was found to be 1.414%. In addition, the CMS %inh with CMS was -0.3112%. The CMK %inh in the experiment on CMK is on record as 0.9087%. The MV4-11 %inh in the experiment on MV4-11 is given as 4.536%. In addition, in the experiment with M07e, the M07e %inh was 2.317%.
In the case of `CCS(=O)(=O)c1ccc(OC)c(Nc2ncc(-c3cccc(-c4ccccc4F)c3)o2)c1` [SJ000573133-1, U16399/42/1], in the experiment on MOLM-13, the MOLM-13 %inh was found to be 73.99%. The CHRF288-11 %inh in the experiment on CHRF288-11 is reported as 3.996%. Also, the U937 %inh with U937 is -2.484%. In the experiment on ML-2, the ML-2 %inh was 1.693%. In the experiment with CMS, the CMS %inh is on record as -1.131%. For the same compound, the CMK %inh with CMK is given as -2.911%. For the same compound, the MV4-11 %inh in the experiment on MV4-11 is reported as 49.91%. The M07e %inh in the experiment on M07e was -0.6473%.
As to `NC[C@H]1CC[C@H](C(=O)O)CC1` [SJ000285898-4, TRANEXAMIC ACID], in the experiment on MOLM-13, the MOLM-13 %inh is recorded as -3.616%. The CHRF288-11 %inh in the experiment on CHRF288-11 is -2.741%. Further, in the experiment on U937, the U937 %inh is -1.275%. The ML-2 %inh in the experiment with ML-2 is 1.648%. Moreover, the CMS %inh with CMS is reported as -4.095%. The CMK %inh with CMK is recorded as -3.012%. Further, the MV4-11 %inh in the experiment on MV4-11 is listed as -0.1986%. In the experiment with M07e, the M07e %inh stood at 0.2149%.
As to `CS(=O)(=O)CCNCc1ccc(-c2ccc3ncnc(Nc4ccc(OCc5ccccc5)c(Cl)c4)c3c2)o1` [SJ000573004-1, U12816/179/1], in the experiment on MOLM-13, the MOLM-13 %inh is given as -1.767%. In addition, the CHRF288-11 %inh with CHRF288-11 is 2.861%. Moreover, in the experiment with U937, the U937 %inh is -2.727%. In the experiment with ML-2, the ML-2 %inh was 2.349%. In the experiment on CMS, the CMS %inh is recorded as -1.14%. In addition, the CMK %inh in the experiment on CMK is listed as 1.726%. Further, in the experiment on MV4-11, the MV4-11 %inh came out at 1.075%. Also, the M07e %inh in the experiment on M07e is given as -1.936%.
Take `O=C1[C@H](CC[C@H](O)c2ccc(F)cc2)[C@@H](c2ccc(O)cc2)N1c1ccc(F)cc1` [SJ000286078-3, EZETIMIBE]: the MOLM-13 %inh with MOLM-13 amounted to 5.807%. The CHRF288-11 %inh in the experiment on CHRF288-11 is on record as 8.692%. In the experiment with U937, the U937 %inh was 5.441%. For the same compound, the ML-2 %inh in the experiment on ML-2 worked out at 2.139%. In the experiment with CMS, the CMS %inh is listed as 1.706%. Moreover, the CMK %inh in the experiment with CMK came to 3.95%. Further, the MV4-11 %inh with MV4-11 turned out to be 0.198%. Moreover, in the experiment with M07e, the M07e %inh turned out to be 4.29%.
On to `COc1ccc(-c2ccc3c(NC(=O)C4CC4)n[nH]c3n2)cc1` [SJ000573088-1, BS100048-058B1], for which the MOLM-13 %inh in the experiment with MOLM-13 amounted to 4.236%. Besides, the CHRF288-11 %inh in the experiment with CHRF288-11 is listed as -3.869%. Besides, in the experiment with U937, the U937 %inh is 1.777%. Besides, in the experiment on ML-2, the ML-2 %inh is 1.731%. For the same compound, the CMS %inh in the experiment with CMS was -1.884%. Further, the CMK %inh with CMK is on record as 5.626%. The MV4-11 %inh in the experiment on MV4-11 is reported as -0.1427%. The M07e %inh in the experiment on M07e is recorded as -1.122%.
In the case of `COc1cccc(-n2ncc3c(N/N=C/c4ccc(C(=O)NCCN(C)C)cc4)ncnc32)c1` [SJ000573155-1, U16945/190/1], the MOLM-13 %inh in the experiment with MOLM-13 is 33.75%. The CHRF288-11 %inh in the experiment with CHRF288-11 is 128.6%. The U937 %inh in the experiment with U937 is reported as 26.01%. Besides, the ML-2 %inh in the experiment with ML-2 was found to be 12.67%. Further, the CMS %inh in the experiment on CMS is given as 51.58%. The CMK %inh in the experiment with CMK is on record as 38.62%. The MV4-11 %inh in the experiment with MV4-11 was found to be 45.9%. For the same compound, the M07e %inh in the experiment with M07e was 23.03%.
With `CCCN1CCC(Oc2cc(Nc3nc(Nc4cccc(F)c4C(N)=O)c4cc[nH]c4n3)c(OC)cc2Cl)CC1` [SJ000573297-1, U23772/200/1], the MOLM-13 %inh in the experiment on MOLM-13 was determined as 2.944%. The CHRF288-11 %inh in the experiment with CHRF288-11 worked out at 4.97%. Also, in the experiment on U937, the U937 %inh is 0.7849%. Moreover, in the experiment with ML-2, the ML-2 %inh was 2.245%. For the same compound, the CMS %inh in the experiment with CMS was -0.1818%. Also, in the experiment with CMK, the CMK %inh is 2.381%. Moreover, the MV4-11 %inh with MV4-11 is recorded as -2.06%. In the experiment on M07e, the M07e %inh is listed as 3.715%.
With `O=C(Nc1n[nH]c2nc(-c3ccco3)c(Br)cc12)C1CC1` [SJ000573145-1, AG201339-071A1], the MOLM-13 %inh in the experiment on MOLM-13 stood at 0.2319%. The CHRF288-11 %inh with CHRF288-11 is listed as -1.607%. Also, the U937 %inh in the experiment on U937 is given as -0.3135%. In addition, the ML-2 %inh in the experiment with ML-2 is on record as -0.5766%. Moreover, the CMS %inh in the experiment with CMS is given as 6.31%. Further, the CMK %inh in the experiment with CMK is on record as 0.1482%. Moreover, the MV4-11 %inh with MV4-11 amounted to 10.91%. Besides, in the experiment on M07e, the M07e %inh was -5.829%.
Regarding `CC1=Nc2ccc(Cl)cc2S(=O)(=O)N1` [SJ000285438-7, DIAZOXIDE], the MOLM-13 %inh in the experiment on MOLM-13 came out at 13.73%. For the same compound, the CHRF288-11 %inh in the experiment with CHRF288-11 was 3.174%. For the same compound, the U937 %inh in the experiment with U937 was found to be 2.608%. In the experiment with ML-2, the ML-2 %inh is -2.212%. Also, the CMS %inh with CMS was -4.011%. Also, in the experiment on CMK, the CMK %inh is recorded as -0.09563%. The MV4-11 %inh in the experiment with MV4-11 is -7.128%. Further, in the experiment with M07e, the M07e %inh is reported as -1.23%.
Regarding `CC[C@@H]([C@H](C)O)n1ncn(-c2ccc(N3CCN(c4ccc(OC[C@@H]5CO[C@@](Cn6cncn6)(c6ccc(F)cc6F)C5)cc4)CC3)cc2)c1=O` [SJ000555711-1, POSACONAZOLE], in the experiment with MOLM-13, the MOLM-13 %inh is listed as -0.6762%. Moreover, the CHRF288-11 %inh in the experiment with CHRF288-11 is reported as 4.654%. In addition, in the experiment on U937, the U937 %inh is recorded as 4.703%. Further, the ML-2 %inh in the experiment with ML-2 is -0.9552%. For the same compound, the CMS %inh in the experiment on CMS was found to be 1.852%. Also, the CMK %inh in the experiment with CMK is recorded as -1.399%. Moreover, in the experiment on MV4-11, the MV4-11 %inh is reported as 1.133%. The M07e %inh in the experiment on M07e is -0.5919%.
